Counter-ions that a name gives are not always drawn. Like-named read-outs stand apart in the source and are kept apart here.
Tested on: beige adipocytes
Assay: Lipolysis validation assays of primary hits at three concentrations
Assay type: cell-based, human
Settings: Homo sapiens, Adipocyte, 24 h; for activity at 2.2 µM: Conc. 2.2 µM; for activity at 6.7 µM: Conc. 6.7 µM; for activity at 20 µM: Conc. 20 µM; for activity at 2200 µM: Conc. 2.2 mM
Method: ADSCs were seeded at 5000 cell/cm^2 in 12-well plates, grown for 5 days and then induced to differentiate into GC for 20 days. Prior to the assay, cells were washed in DPBS twice and then incubated with DMEM with 2% fatty-acid free BSA (Santa Crus, sc-500949) and Triascin C (5 μM). Cells were treated with forskolin (20 μM) for indicated time periods and supernatant samples were collected. Lipolysis assay was performed with free glycerol reagent (Sigma, F6428-40ML), according to manufacturer instructions.
Lipolysis assays were performed after 24 hours of drug treatment by measuring free glycerol released in the 384-well format, using the procedure described above. Absorbance for each compound was normalized to untreated control samples for each plate and calculated as a percent of the control. Cut-offs for “activating” and “inhibiting” compounds were set at 2-fold. Validation assays were performed for select compounds at a range of concentration doses.
Next, lipolysis assays were performed for all 111 compounds identified in the primary screen at three different concentrations, of which twenty-four were selected for further analysis based on their newness and/or reproducibility.

SMILES | activity at 2.2 µM (read-out: % of Control (2)) [%] | activity at 2.2 µM (read-out: % of Control (4)) [%] | activity at 6.7 µM (read-out: % of Control (1)) [%] | activity at 6.7 µM (read-out: % of Control (2)) [%] | activity at 6.7 µM (read-out: % of Control (3)) [%] | activity at 6.7 µM (read-out: % of Control (4)) [%] | activity at 20 µM (read-out: % of Control (1)) [%] | activity at 20 µM (read-out: % of Control (2)) [%] | activity at 20 µM (read-out: % of Control (3)) [%] | activity at 20 µM (read-out: % of Control (4)) [%] | activity at 2200 µM (read-out: % of Control (1)) [%] | activity at 2200 µM (read-out: % of Control (3)) [%]
O=C(Nc1c[nH]nc1-c1nc2ccc(CN3CCOCC3)cc2[nH]1)NC1CC1 [AT9283] | 115 | 133 | 151 | 152 | 161 | 177 | 132 | 144 | 202 | 159 | 163 | 142
CC(=O)Nc1ccccc1 [Acetanilide] | 377 | 119 | 252 | 332 | 246 | 249 | 298 | 295 | 253 | 258 | 317 | 251
CCc1cnn2c(NCc3ccc[n+]([O-])c3)cc(N3CCCC[C@H]3CCO)nc12 [Dinaciclib] | 232 | 179 | 180 | 204 | 149 | 129 | 291 | 246 | 60.7 | 262 | 175 | 193
CCOC(=O)C1=C(C)NC(C)=C(C(=O)OC)C1c1cccc(Cl)c1Cl (stereo not drawn) [Felodipine] | 220 | 206 | 284 | 241 | 228 | 256 | 291 | 274 | 244 | 245 | 243 | 203
CCC(NC(C)C)C(O)c1ccc(O)c(O)c1 (stereo not drawn) [Isoetharine Mesylate] | 307 | 106 | 373 | 301 | 339 | 247 | 417 | 304 | 204 | 260 | 294 | 258
C[C@@H]1CC(=O)NN=C1c1ccc(NN=C(C#N)C#N)cc1 [Levosimendan] | 163 | 236 | 197 | 189 | 211 | 246 | 261 | 280 | 247 | 340 | 215 | 189
CC(Oc1c(Cl)cccc1Cl)C1=NCCN1 (stereo not drawn) [Lofexidine HCl] | 115 | 91.4 | 122 | 176 | 180 | 149 | 205 | 200 | 148 | 191 | 104 | 119
CC(C)C[C@H](NC(=O)CNC(=O)c1cc(Cl)ccc1Cl)B1OC(=O)C(CC(=O)O)(CC(=O)O)O1 [MLN9708] | 139 | 114 | 198 | 228 | 176 | 115 | 138 | 173 | 117 | 90 | 251 | 205
CC(C)NCC(O)c1cc(O)cc(O)c1 (stereo not drawn) [Metaproterenol Sulfate] | 298 | 305 | 311 | 412 | 293 | 283 | 305 | 293 | 308 | 274 | 327 | 291

From patent US20220079993A1, “NON-NATURALLY OCCURRING THERMOGENIC ADIPOCYTES, METHODS OF MAKING, AND METHODS OF USE THEREOF” (University of Georgia Research Foundation, Inc., priority 2019, published 2022)
